From the NIST ThermoML archive (doi:10.1021/je200421s)

Columns and labels:
[1] = mn = molality of the nth substance listed, in mol/kg; conditions: 101 kPa, Liquid, Vibrating tube method
[2] = refractive index (Na D-line) (dimensionless); mn = molality of the nth substance listed, in mol/kg; conditions: 298.15 K, 101 kPa, Liquid, Standard Abbe refractometry

CC(=O)NCCCCCCNC(C)=O [N,N'-diacetyl-1,6-hexanediamine] + O
mass density [kg/m3], [1]
Conditions | m1 = 0.0999 | m1 = 0.1498 | m1 = 0.1998 | m1 = 0.25 | m1 = 0.3001 | m1 = 0.3503 | m1 = 0.3984
288.15 K | 1000.16 | 1000.68 | 1001.23 | 1001.78 | 1002.34 | 1002.88 | 1003.42
293.15 K | 999.201 | 999.691 | 1000.2 | 1000.72 | 1001.25 | 1001.75 | 1002.26
298.15 K | 997.982 | 998.441 | 998.923 | 999.415 | 999.908 | 1000.38 | 1000.87
303.15 K | 996.53 | 996.965 | 997.419 | 997.884 | 998.347 | 998.795 | 999.248
308.15 K | 994.869 | 995.284 | 995.708 | 996.146 | 996.58 | 997.002 | 997.432

[2]
Conditions | refractive index
m1 = 0.0999 | 1.335
m1 = 0.1498 | 1.3365
m1 = 0.1998 | 1.338
m1 = 0.25 | 1.3396
m1 = 0.3001 | 1.3409
m1 = 0.3503 | 1.342
m1 = 0.3984 | 1.3433

O [water] + CC(=O)NCCCCCCNC(C)=O
Conditions | refractive index
[2], m2 = 0 | 1.332
